# Measured values reported in patent US20210137850A1, “DIAGNOSIS & TREATMENT OF ERCC3-MUTANT CANCER” (MEMORIAL SLOAN KETTERING CANCER CENTER, priority 2017, published 2021).
# Columns and labels:
# [1] = system: XPCS2BA cells stably overexpressing ERCC3 WT; experiment: Cell viability after IlludinS, cells overexpressing wild-type ERCC3 (CellTiter-Glo); type: cell-based, human
# Experimental: (§1) To understand whether this variant has a deleterious effect on the gene function, we carried out a series of in vitro functional assays. Using a previously well characterized ERCC3 deficient cell line derived from an XP/CS patient (7), phenotype rescue after DNA damage was assessed by cell viability assay. […] Similarly, following UVC irradiation at a dose of 10 J/m^2, 72 hours post-exposure, 42% of the R109X cells survived compared to 63% of WT cells (P<0.0001). At a dose of […], these numbers reduced more drastically for the mutant, showing the same trend as the IlludinS exposure experiment. (FIG. 2D).
# (§2) For viability assessment following treatment with IlludinS (Cayman Chemical), cells were seeded into 96 well plates 24 hours prior to treatment. For post-UV viability assays, cells were exposed to the appropriate doses of UV irradiation and subsequently seeded into 96 well plates. Cell viability was measured after 72 hours using the CellTiter-Glo® Luminescent Cell Viability Assay (Promega).
# [2] = system: XPCS2BA cells stably overexpressing ERCC3 R109X; experiment: Cell viability after IlludinS, cells overexpressing the ERCC3 R109X mutant (CellTiter-Glo); type: cell-based, human
# Experimental: as §1, §2
# [3] = system: XPCS2BA parental cell line; experiment: Cell viability after IlludinS, parental ERCC3-deficient cell line (CellTiter-Glo); type: cell-based, human
# Experimental: as §1, §2
# [4] = system: γ-H2AX in HMLE control and ERCC3 CRISPR edited cell lines; type: cell-based, human; details: 8 ng/ml IlludinS for 1 h; ERCC3 CRISPR mutants vs wild type, P<0.05
# Experimental: To assess the induction and removal of phosphorylated H2AX in response to DNA damage we performed immunostaining and flow cytometric analysis of γ-H2AX positive cells following treatment with IlludinS.
# For flow cytometric analysis, 24 h after seeding, cells were either left untreated or were treated with 8 ng/ml IlludinS for 1 h. Treated cells were subsequently washed with PBS and supplemented with drug-free medium. The cells were harvested at different time points after treatment and fixed with 4% PFA for 10 min at RT. Cells were quickly chilled on ice and ice-cold MeOH was added to a final concentration of 90%. The cells were incubated on ice for 30 min and stored at −20° C. For immunostaining the cells were washed twice with PBS/0.5% BSA and incubated with anti phospho-Histone H2A.X (Ser139) Antibody (1:250; Cell Signaling Technology) for 1 h at RT, washed again and incubated with Alexa-488 conjugated secondary antibody for 45 min at RT. For each condition 20.000 cells were recorded and data from two replicate experiments was analyzed using the FlowJo software (V10.1).
# parental HMLE cells = experiment: Cell viability after IlludinS, parental mammary epithelial cells; type: cell-based, human; details: 2 ng/ml IlludinS, 72 hours
# Experimental: (§3) Overexpression of ERCC3 mutant constructs […] physiological levels of protein in a germline heterozygous mutation state within cells. Therefore, using CRISPR/Cas9, we engineered several heterozygous mutations in the mammary epithelial cell line HMLE that mimic the site of the originally discovered recurrent mutation in breast cancer individuals (Table 3, FIG. 4).
# as §2
# [5] = system: CRISPR edited HMLE cell lines (ERCC3 heterozygous mutants); experiment: Cell viability after IlludinS, CRISPR/Cas9 edited ERCC3 heterozygous mutant cells; type: cell-based, human
# Experimental: as §3, §2
# [6] = system: HMLE+/R109X cells vs HMLE+/+ cells; experiment: Cell viability after Irofulven, ERCC3 WT vs R109X heterozygous HMLE cells; type: cell-based, human; details: 72 hours, increasing doses
# Experimental: as §2
# (§4) In vitro experiments were performed to compare the effects of Irofulven on cell viability of ERCC3 WT HMLE cells and CRISPR-edited HMLE cells heterozygous for the ERCC3 R109X mutation. These same cell lines were used in Example 1 to assess sensitivity to IlludinS. Cell viability was assessed 72 hours following treatment of the cells with increasing doses of Irofulven. FIG. 11A provides the results in graphical form. Similar experiments were also performed using cells similar to those described above (i.e. that were either ERCC3 WT or R109X) but that also stably expressed mutant hRAS-V12. (These hRAS-V12 cells were used for xenograft generation in the in vivo experiments described below). FIG. 11B provides results showing the effects of Irofulven on cell viability of the +/+WT H-RAS-V12 HMLE cells the heterozygous+/−R109X H-RAS-V12 HMLE cells. The data shown in both FIG. 11A and FIG. 11B represents the mean of three experiments with error bars representing the SEM.
# [7] = system: ERCC3 expression in ERCC3 mutant tumors; experiment: Real time PCR of ERCC3 transcript in xenograft tumors; type: in vivo, athymic nude mice; details: two treatment cycles of Irofulven
# [8] = system: R109X H-RAS-V12 HMLE cells vs WT H-RAS-V12 HMLE cells; experiment: Cell viability after Irofulven, hRAS-V12 expressing ERCC3 WT vs R109X HMLE cells; type: cell-based, human; details: 72 hours, increasing doses, hRAS-V12 HMLE R109X heterozygous
# Experimental: as §2, §4
# [9] = system: ERCC3 R109X HMLE HRAS-V12 tumors; experiment: Mouse xenograft model, ERCC3 R109X mutant tumors; type: in vivo, athymic nude mice
# Experimental: (§5) To assess the effect of the ERCC3 R109X mutation on Irolfulven sensitivity in vivo, a tumor xenograft system was generated and used. As described above, ERCC3 WT and ERCC3-mutant (R109X) cells were made in an HMLE HRAS-V12 background. These cells were injected into the flanks of athymic nude mice. The resultant tumors were allowed to grow to a size of about 100 mm^3. Treatment was then started. Either a vehicle control or Irofulven (at a dose of either 3.5 mg/kg or 7 mg/kg) was injected intraperitoneally (IP) daily for 5 consecutive days (the treatment “on” time), followed by a period of 16 days of treatment “off” time—making one 21-day cycle. Treatment cycles were then repeated. This treatment regimen was similar to that employed in several reported human clinical trials of Irofulven. The size of the tumors was measured weekly. […] In the ERCC3 WT xenograft group the average tumor size at treatment initiation was 97.7 mm^3 (74.6-120.3 mm^3). In the ERCC3 R109X xenograft group the average tumor size at treatment initiation was 172.8 mm^3 (101.8-238.6 mm^3). […] Additional experiments are underway to further validate these preliminary findings.
# [10] = system: ERCC3 WT HMLE HRAS-V12 tumors; experiment: Mouse xenograft model, ERCC3 WT tumors; type: in vivo, athymic nude mice; details: 3.5 mg/kg or 7 mg/kg IP daily for 5 days per 21-day cycle
# Experimental: as §5
compound,measurement,setting,value
"CC1=C2C(=C[C@@](C)(CO)[C@@H]2O)C(=O)[C@](C)(O)C12CC2 [IlludinS, Illudin S]",cells survived,"[1]; 2 ng/ml IlludinS, 72 hours",77%
same,cell survival,[1]; 4 ng/ml IlludinS,most of the WT cells survived
same,cells survived,"[2]; 2 ng/ml IlludinS, 72 hours, R109X overexpressing XPCS2BA",42%
same,cell death compared to ERCC3 WT,"[2]; increasing doses of IlludinS, R109X overexpressing cells",significantly higher cell death
same,cells survived,"[3]; 2 ng/ml IlludinS, 72 hours, XPCS2BA",3%
same,cell death,"[3]; higher doses of IlludinS, untransfected cells",all died
same,reduction in γ-H2AX after DNA damage,[4],significantly lower
same,cell survival,parental HMLE cells,all the parental HMLE cells survived
same,cell survival,"[5]; 2 ng/ml IlludinS, 72 hours, CRISPR edited HMLE, P<0.0001",significantly reduced survival
same,relative cell viability,"[5]; 72 hours after exposure to IlludinS, ERCC3 CRISPR clones",substantial reduction in relative cell viability
same,response to IlludinS after stable overexpression of WT ERCC3 (rescue),[5]; ERCC3 CRISPR cell lines re-expressing WT ERCC3,same response to IlludinS as the WT HMLE cell line
"CC1=C(CO)C2=C(C)C3(CC3)[C@@](C)(O)C(=O)C2=C1 [Irofulven, 6-hydroxymethylacylfulvene]",sensitivity to Irofulven (inhibition of cell viability) vs ERCC3 WT cells,[6],much more sensitive
same,ERCC3 expression (relative transcript level),[7],upregulated
same,sensitivity to Irofulven (inhibition of cell viability) vs ERCC3 WT cells,[8],much more sensitive
same,tumor growth,[9]; 3.5 mg/kg or 7 mg/kg IP daily for 5 days per 21-day cycle,significant reduction
same,sensitivity to tumor inhibitory effects compared to ERCC3 WT tumors,[9]; preliminary studies,may have been more sensitive
same,tumor growth,[10],significant reduction
